Active and inactive are the calls of the source.
Experiments:
[1] = target: T1, Serine/threonine-protein phosphatase (Candida dubliniensis (strain CD36 / CBS 7987 / NCPF 3949 / NRRLY-17841) (Yeast), UniProt B9W6M3); assay: blockers of CaCl2-induced CDRE-lacZ signaling – S. cerevisiae, luminescence, secondary, dose response (AID 2388); type: functional, cell-based;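 further: yeast reporter cells carrying a calcineurin-responsive lacZ construct stimulated with calcium chloride; luminescent beta-galactosidase reporter signal in whole cells rather than isolated phosphatase activity; potency for inhibition where a drop in reporter signal means calcineurin blockade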
T1 sequence (B9W6M3 whole entry): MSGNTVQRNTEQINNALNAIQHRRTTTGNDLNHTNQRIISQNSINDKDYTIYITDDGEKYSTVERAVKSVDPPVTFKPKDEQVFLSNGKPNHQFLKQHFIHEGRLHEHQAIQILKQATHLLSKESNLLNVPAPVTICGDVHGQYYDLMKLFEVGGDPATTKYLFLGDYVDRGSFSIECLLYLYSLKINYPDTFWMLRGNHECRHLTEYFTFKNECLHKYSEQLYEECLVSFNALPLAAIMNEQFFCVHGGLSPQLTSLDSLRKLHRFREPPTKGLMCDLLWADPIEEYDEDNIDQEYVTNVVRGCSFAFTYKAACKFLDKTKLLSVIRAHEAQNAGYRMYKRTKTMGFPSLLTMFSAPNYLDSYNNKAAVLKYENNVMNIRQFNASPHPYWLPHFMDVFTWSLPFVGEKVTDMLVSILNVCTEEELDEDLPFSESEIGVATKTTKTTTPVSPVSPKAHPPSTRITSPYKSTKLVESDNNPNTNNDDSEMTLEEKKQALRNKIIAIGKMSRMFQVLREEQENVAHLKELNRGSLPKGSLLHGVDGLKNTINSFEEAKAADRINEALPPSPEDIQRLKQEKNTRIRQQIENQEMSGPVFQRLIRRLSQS

[2] = system: HEK293; assay: EBV LMP1 TES2 canonical NF-kB signalling blockers – cell-based, HEK293, luciferase, cherry-pick, dose response (AID 588343); type: functional; settings: Homo sapiens
[3] = system: Vero; assay: cells; type: functional; settings: Chlorocebus sabaeus
[4] = Trypanosoma cruzi growth suppression in host cells – NIH3T3 host cells, beta-gal luminescence, confirmation (AID 2044); type: functional, cell-based;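 further: intracellular parasites grown in NIH/3T3 mouse fibroblasts as host cells; luminescent beta-galactosidase reporter signal from transgenic T. cruzi replicating inside host cells; inhibitors lower the luminescence signal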
[5] = target: Small ubiquitin-related modifier 1 (Homo sapiens, UniProt P63165); assay: SUMO1 protein-protein binding blockers, potency – biochemical, FRET, dose response (AID 624383); type: functional; settings: read-out: IC50_Mean
Small ubiquitin-related modifier 1, sequence (P63165 whole entry): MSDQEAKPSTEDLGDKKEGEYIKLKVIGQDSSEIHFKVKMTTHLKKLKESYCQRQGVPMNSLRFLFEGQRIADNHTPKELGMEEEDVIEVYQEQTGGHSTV

[6] = RKO cell viability reduction, dose response, CellTiter-Glo luminescence (AID 1117322); type: functional
[7] = target: T2, Streptokinase A (Streptococcus pyogenes serotype M1, UniProt P10520); assay: viability-normalized secreted streptokinase activity reduction – plasminogen activation absorbance, OD405, dose response (AID 1914); type: functional, Streptococcus pyogenes M1 GAS;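 further: secreted streptokinase activity via plasminogen activation per viability signal from cell pellet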
T2 sequence (P10520 whole entry): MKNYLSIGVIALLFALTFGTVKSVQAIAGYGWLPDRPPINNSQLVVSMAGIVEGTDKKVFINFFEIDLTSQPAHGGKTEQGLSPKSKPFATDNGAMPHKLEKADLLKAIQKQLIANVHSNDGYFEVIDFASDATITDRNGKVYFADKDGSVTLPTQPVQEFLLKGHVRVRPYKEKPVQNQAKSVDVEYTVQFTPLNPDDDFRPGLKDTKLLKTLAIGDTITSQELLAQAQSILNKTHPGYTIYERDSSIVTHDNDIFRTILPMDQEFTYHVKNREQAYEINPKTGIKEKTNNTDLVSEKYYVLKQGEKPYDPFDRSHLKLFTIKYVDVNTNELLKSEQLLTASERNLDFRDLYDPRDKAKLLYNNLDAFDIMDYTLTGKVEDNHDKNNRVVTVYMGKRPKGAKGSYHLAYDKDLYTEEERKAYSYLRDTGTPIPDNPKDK

[8] = target: Fatty acid synthase (Homo sapiens, UniProt P49327); assay: inhibition of human FAS-TE enzyme activity – biochemical, kinetic fluorescence intensity, dose response (AID 624326); type: functional;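 further: rate of fluorescence rise from hydrolysis of a fluorogenic O-methyl fluorescein ester substrate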
Fatty acid synthase, sequence (P49327 whole entry): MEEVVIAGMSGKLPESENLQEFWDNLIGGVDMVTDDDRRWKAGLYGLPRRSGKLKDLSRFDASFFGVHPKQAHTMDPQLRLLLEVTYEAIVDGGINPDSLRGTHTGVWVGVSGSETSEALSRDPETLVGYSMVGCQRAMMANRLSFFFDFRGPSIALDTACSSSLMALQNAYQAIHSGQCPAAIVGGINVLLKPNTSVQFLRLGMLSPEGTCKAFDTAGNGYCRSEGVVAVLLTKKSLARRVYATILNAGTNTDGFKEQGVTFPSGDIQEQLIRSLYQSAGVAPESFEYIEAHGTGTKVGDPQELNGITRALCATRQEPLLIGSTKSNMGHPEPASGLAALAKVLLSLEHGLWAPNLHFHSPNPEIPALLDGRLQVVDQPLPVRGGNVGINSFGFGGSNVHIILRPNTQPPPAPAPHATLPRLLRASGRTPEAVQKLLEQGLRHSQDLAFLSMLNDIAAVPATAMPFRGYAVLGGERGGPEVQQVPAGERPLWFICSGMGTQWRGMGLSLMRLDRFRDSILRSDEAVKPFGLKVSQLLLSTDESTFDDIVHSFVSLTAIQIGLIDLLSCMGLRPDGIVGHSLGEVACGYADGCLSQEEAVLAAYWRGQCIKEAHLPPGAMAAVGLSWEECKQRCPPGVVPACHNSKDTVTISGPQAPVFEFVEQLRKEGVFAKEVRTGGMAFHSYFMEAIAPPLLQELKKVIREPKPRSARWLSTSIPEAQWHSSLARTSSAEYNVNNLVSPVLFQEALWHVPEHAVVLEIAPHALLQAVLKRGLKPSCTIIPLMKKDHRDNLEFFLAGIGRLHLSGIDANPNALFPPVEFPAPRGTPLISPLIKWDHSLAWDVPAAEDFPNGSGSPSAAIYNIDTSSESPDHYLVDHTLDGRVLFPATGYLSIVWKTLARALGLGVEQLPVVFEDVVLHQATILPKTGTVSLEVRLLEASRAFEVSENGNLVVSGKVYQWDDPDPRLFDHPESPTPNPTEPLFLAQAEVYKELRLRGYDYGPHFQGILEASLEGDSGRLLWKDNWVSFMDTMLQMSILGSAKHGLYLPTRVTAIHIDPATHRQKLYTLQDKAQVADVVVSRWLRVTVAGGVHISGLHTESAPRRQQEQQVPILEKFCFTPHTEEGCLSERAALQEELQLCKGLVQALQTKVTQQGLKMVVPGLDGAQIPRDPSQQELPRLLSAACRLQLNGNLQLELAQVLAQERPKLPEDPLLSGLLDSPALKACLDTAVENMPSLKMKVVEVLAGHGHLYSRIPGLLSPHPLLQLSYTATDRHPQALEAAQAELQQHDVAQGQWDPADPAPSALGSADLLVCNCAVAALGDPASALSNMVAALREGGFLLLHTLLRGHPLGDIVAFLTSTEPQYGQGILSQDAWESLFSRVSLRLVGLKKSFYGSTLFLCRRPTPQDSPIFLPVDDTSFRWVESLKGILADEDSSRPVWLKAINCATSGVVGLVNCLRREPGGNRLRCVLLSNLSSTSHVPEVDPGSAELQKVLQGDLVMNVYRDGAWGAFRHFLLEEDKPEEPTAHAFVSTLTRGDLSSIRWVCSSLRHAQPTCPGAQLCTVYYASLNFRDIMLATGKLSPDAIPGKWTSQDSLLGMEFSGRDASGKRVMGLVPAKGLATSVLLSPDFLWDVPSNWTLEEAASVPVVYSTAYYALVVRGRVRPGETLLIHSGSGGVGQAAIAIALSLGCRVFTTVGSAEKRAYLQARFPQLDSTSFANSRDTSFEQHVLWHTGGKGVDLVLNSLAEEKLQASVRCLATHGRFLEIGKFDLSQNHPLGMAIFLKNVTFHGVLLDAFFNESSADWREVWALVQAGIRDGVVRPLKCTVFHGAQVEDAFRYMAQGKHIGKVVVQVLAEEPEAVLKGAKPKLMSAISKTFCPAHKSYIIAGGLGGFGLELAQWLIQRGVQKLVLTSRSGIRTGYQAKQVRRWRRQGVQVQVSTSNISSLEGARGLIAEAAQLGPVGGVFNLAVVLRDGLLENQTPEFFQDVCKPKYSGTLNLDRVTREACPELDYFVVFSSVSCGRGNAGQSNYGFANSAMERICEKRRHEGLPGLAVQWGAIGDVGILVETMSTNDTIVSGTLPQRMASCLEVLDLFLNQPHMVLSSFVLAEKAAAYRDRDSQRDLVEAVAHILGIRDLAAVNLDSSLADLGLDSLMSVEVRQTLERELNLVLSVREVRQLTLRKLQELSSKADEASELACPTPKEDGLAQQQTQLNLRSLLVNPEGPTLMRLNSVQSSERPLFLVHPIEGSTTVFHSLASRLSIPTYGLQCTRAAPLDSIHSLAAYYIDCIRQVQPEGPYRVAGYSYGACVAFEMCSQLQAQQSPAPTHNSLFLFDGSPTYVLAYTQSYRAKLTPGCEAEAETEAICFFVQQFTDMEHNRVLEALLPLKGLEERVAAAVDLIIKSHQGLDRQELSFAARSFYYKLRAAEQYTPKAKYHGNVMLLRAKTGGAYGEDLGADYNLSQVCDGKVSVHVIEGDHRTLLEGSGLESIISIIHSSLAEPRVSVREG

[9] = cytotoxicity toward Colo320 cells – cell-based, CellTiter-Glo luminescence, IC50, dose response (AID 1117334); type: functional; settings: COLO 320
[10] = microbe, parasite or virus in culture; type: functional; settings: Mycobacterium tuberculosis

With `CCCC(=O)NC(c1ccc(C(C)C)cc1)c1ccc2cccnc2c1O` (stereo not given) the EC50 [1] was > 180 µM (inactive), the AC50 [2] was 5.04 µM (active) and the CC50 [3] was 2.88 µM (active). The EC50 [4] was 0.227 µM (active).
With `Oc1c(Cl)cc(Cl)c(Cl)c1Cc1c(O)c(Cl)cc(Cl)c1Cl` [HEXACHLOROPHENE] the IC50 [5] was 38.9 µM (inactive), the IC50 [6] was 0.108 µM (active) and the EC50 [7] was > 150 µM (not active). The IC50 [8] was 5.68 µM (active) and the IC50 [9] was 0.0572 µM (active).
For `CC1(C)Cc2ccccc2C2=NNC(=O)C2=N1`, the CC50 [10] was 31.2 µM (active).
